Among the data in patent US11857560B2, “Pharmaceutical compositions comprising substituted nucleotides and nucleosides for treating viral infections” (priority 2013, dated 2024) are EC50 and CC50 values, retold here.

SMILES strings stand for the structures.

In general, EC50 refers to the midpoint of the concentration-response curve. A high value points to lower potency in that assay. A word on the CC50: it is the concentration that lowers cell viability or growth by half.

In one data set the test system is HBV. As to the kind of experiment: HBV replication assay. Conditions: Hepatitis B virus. It counts as cell-based. The procedure: Ten microliters of cell culture supernatant collected on the sixth day was diluted in qPCR dilution buffer (40 μg/mL sheared salmon sperm DNA) and boiled for 15 minutes. Quantitative real time PCR was performed in […] using an Applied Biosystems 7900HT Sequence Detection System and the supporting SDS 2.4 software. Five microliters (5 μL) of boiled DNA for each sample and serial 10-fold dilutions of a quantitative DNA standard were subjected to real time Q-PCR using Platinum Quantitative PCR SuperMix-UDG (Invitrogen) and specific DNA oligonucleotide primers (IDT, Coralville, […]) HBV-AD38-qFI (5′-[…] -3′) (SEQ ID NO: 1), HBV-AD38-qR1 (5′-AGT CCA AGA GTY CTC TTA TRY AAG ACC TT-3′) (SEQ ID NO: 2), and HBV-AD38-qPI (5′-FAM CCG TGT GCA/ZEN/[…] -3′BHQ1) (SEQ ID NO: 3) at a final concentration of 0.2 μM for each primer in a total reaction volume of 15 μL. The HBV DNA copy number in each sample was interpolated from the standard curve by the SDS.24 software and the data were imported into an Excel spreadsheet for analysis.

A short description of data set [1]: Cytotoxicity in HepG2 cells (HBV assay). The format is cell-based. As to conditions: human, HepG2.2.15 cells; beside HBV. The procedure: The 50% cytotoxic concentration for the test materials are derived by measuring the reduction of the tetrazolium dye XTT in the treated tissue culture plates. XTT is metabolized by the mitochondrial enzyme […] to a soluble formazan product in metabolically active cells. […] The 2-4 hour incubation has been empirically determined to be within linear response range for XTT dye reduction with the indicated numbers of cells for each assay. […] Data were collected by Softmax 4.6 software and imported into an Excel spreadsheet for analysis.

The test system of another data set is Adenovirus. As to the kind of experiment: Adenovirus replication assay. It counts as cell-based. As to conditions: unidentified adenovirus.
The test system of another data set is HSV-1. Kind of data set: HSV-1 replication assay. It counts as cell-based. Conditions: Human alphaherpesvirus 1.
A short description of data set [2]: Cytotoxicity in Huh-7 cells (HSV-1 assay). It counts as cell-based. As to conditions: human, beside HSV-1.
For the next data set, the system named is HIV. Kind of data set: HIV infected PBMC assay. It counts as cell-based, HIV-1. As to conditions: Human immunodeficiency virus 1, PBMC. The procedure:
Fresh human peripheral blood mononuclear cells (PBMCs) were obtained from a commercial source (Biological Specialty) and were determined to be seronegative for HIV and HBV. Depending on the volume of donor blood received, the leukophoresed blood cells were washed several times with PBS. After washing, the leukophoresed blood was diluted 1:1 with Dulbecco's phosphate buffered saline (PBS) and layered over 15 mL of Ficoll-Hypaque density gradient in a 50 ml conical centrifuge tube. These tubes were centrifuged for 30 min at 600 g. Banded PBMCs were gently aspirated from the resulting interface and washed three times with PBS. […] After incubation, PBMCs were centrifuged and resuspended in tissue culture medium. The cultures were maintained until use by half-volume culture changes with fresh IL-2 containing tissue culture medium every 3 days. […]
Following addition of test compound to the wells, 50 uL of a predetermined dilution of HIV virus (prepared from 4× of final desired in-well concentration) was added, and mixed well. […] After 7 days in culture, HIV-1 replication was quantified in the tissue culture supernatant by measurement of reverse transcriptase (RT) activity. […]
Reverse Transcriptase Activity Assay—Reverse transcriptase activity was measured in cell-free supernatants using a standard radioactive incorporation polymerization assay. […]

A short description of data set [3]: Cytotoxicity in PBM cells (HIV assay). The format is cell-based. Conditions: human, peripheral blood mononuclear cells (PBMCs), PHA-P stimulated; beside HIV.
A further data set has as its system HCMV. Kind of data set: HCMV replication assay. It counts as cell-based. Conditions: Human betaherpesvirus 5.
Data set [4] can be described thus: Cytotoxicity in MRC-5 cells (HCMV assay). It counts as cell-based. As to conditions: human, beside HCMV.
A further data set concerns VZV. Kind of data set: VZV replication assay. The format is cell-based. As to conditions: Human alphaherpesvirus 3.
A short description of data set [5]: Cytotoxicity in MRC-5 cells (VZV assay). Conditions: human, beside VZV. It counts as cell-based.
Another data set relates to Huh-7. As to the kind of experiment: Cytotoxicity panel, Huh-7. As to conditions: read-out: Cytotoxicity (CC50 uM) Huh-7; Huh-7.
A short description of data set [6]: Toxicity in Huh-7 cells (Dengue assay). As to conditions: human, Huh-7 cells.

Regarding `CC(C)OC(=O)[C@H](C)NP(=O)(OC[C@H]1O[C@@H](n2ccc(=O)[nH]c2=S)[C@](C)(O)C1O)Oc1ccccc1` (stereo partly shown) [ENUC-01911], the EC50 in the data set with HBV, with Adenovirus, in the data set with HSV-1, in the data set on HIV, in the data set on HCMV and in the data set with VZV was greater than 100 µM throughout. The same molecule yielded a CC50 at 6 days in data set [1] greater than 100 µM. For the same molecule, the CC50 was greater than 100 µM in data set [2]; greater than 100 µM in data set [4]; greater than 100 µM in data set [5]; greater than 400 µM with Huh-7; greater than 100 µM in data set [6]. In [3], the CC50 at 7 days is greater than 100 µM.
